Bounds are passed on as bounds.

The subject of assay [1] is normal human skin fibroblasts. Kind of assay: Cell synchronization by aphidicolin (flow cytometry). It is filed as cell-based. As for the experimental part:
Normal human skin fibroblasts were cultured in 10% fetal calf serum in Dulbecco's modified Eagles medium (DMEM). […] After 3 days, dishes were incubated with aphidicolin (4 μg/ml)(CalBiochem, San Diego, Calif.) to inhibit DNA polymerase, leading to cell arrest immediately before S-phase (Tobey et al. (1988) Expt. Cell Res. […]). After 24 h incubation with aphidicolin, the inhibitor was removed for a further 12 h, then restored for a `double block` at 8 μg/ml for a further 24 h (Sourlingas et al. (1996) Anal. Biochem. 234:104-107). After final removal from inhibitor into 10% serum-DME medium, the cells during incubation over the next 32 h at 37° C. […]
After 3 days, dishes were incubated with aphidicolin (4 μg/ml)(CalBiochem, San Diego, Calif.) to inhibit DNA polymerase, leading to cell arrest immediately prior to DNA synthesis (S-phase) (Tobey et al. (1988) Exptl. Cell Res. 179: 400-416, Sourlingas and Sekeri-Pataryas (1996) Anal. Biochem. 234: 104-107.). […] Cell synchronization was assessed by flow cytometry using the cell permeable stain Hoechst 33342 (Molecular Probes, Eugene, Oreg.)(Haas-Kogan et al. (1995) EMBO J. 14: 461-472.). […] Samples were analysed on a FACStar Plus (Becton Dickinson, San Jose, Calif.). Data was analysed using Lysis II software (Becton Dickinson). […]

Assay [2] concerns fibroblast monolayers. Put plainly: FC efflux from fibroblast monolayers (3H-FC label). It is filed as cell-based, human. As to conditions: in words. On the procedure: Fibroblast monolayers were equilibrated with ^3 H-FC-labeled native plasma or with isolated ^3 H-labeled LDL, as specified for each experiment. Following incubation, the dishes were washed with albumin-complete PBS and then (×4) with complete PBS. They were then incubated for 3 min with unlabeled plasma or lipoprotein fractions and the rate of appearance of radioactivity in the medium determined. Samples of medium ([…]) were immediately chilled in ice water and centrifuged (10 min, 2000×g) at 0-2° C. ^3 H-cholesterol radioactivity in the supernatant was either assayed directly, or fractionated by agarose gel electrophoresis. FC efflux was linear as previously reported (Kawano et al., Biochemistry, 32: 5025-5028 (1993)).
For electrophoresis, […] portions of labeled medium were added to strips of 0.75% w/v agarose in 0.025 M barbital buffer (pH 8.6) and separated as previously described (Fielding et al., Biochemistry, 30: 8551-8557 (1991)). 2.5 mm gel fractions were then collected, and radioactivity measured. The location of major lipoprotein classes was determined from strips run simultaneously with whole native plasma equilibrated (60 min, 37° C.) With ^3 HFC.
Rates of FC influx and efflux between medium and fibroblast monolayers preincubated for 24 h with 7-80% native human plasma in DMEM were determined. Cells equilibrated in 80% compared to 7% v/v plasma contained 35-40% more total cholesterol but only 10-15% more FC. In 50% v/v plasma, cholesteryl ester levels were lower than in 80% plasma but FC levels were almost the same. Rates of transfer of FC between the cells and their extracellular medium were determined for each plasma dilution. […] was measured as the rate of transfer of ^3 H-FC radioactivity from labeled native plasma to unlabeled cells. […] was determined as the rate of transfer of radioactivity from uniformly labeled cells to unlabeled native plasma medium.

The test system of assay [3] is intracellular FC transport to the cell surface in fibroblast monolayers. Kind of assay: Transfer of intracellular 3H-FC to the cell surface (cholesterol oxidase). It is filed as cell-based, human. The following applies: in words. On the procedure: This assay utilized the finding (see Example 1) that only FC in the caveolar fraction of the plasma membrane fraction was modified by cholesterol oxidase in unfixed fibroblast monolayers.
The rate at which intracellular LDL-derived ^3 H-FC became accessible at the cell surface was measured as follows. Cell monolayers were labeled with ^3 H-FC LDL under the conditions shown for each experiment. Unbound and adsorbed LDL were removed as described above. In some experiments metabolic inhibitors of different transport steps were then added for 30 min at 15° C. […] Cholesterol oxidase (Boehringer-Manheim, Indianapolis, Ind., USA) was added in PBS to a final concentration of 1 U ml^-1. Incubation was for 4 h at 0° C. The cells were washed with ice-cold PBS, and extracted with 0.1 N NAOH. Cell total lipid was extracted with chloroform-methanol (1:1 v/v). […] .
Fibroblast monolayers were prelabeled with FC-labeled LDL for 2 min at 31° C. Medium and surface-bound labeled LDL were removed as described above. The cells were incubated with inhibitors of intracellular transport for 30 min at 15° C. Movement of FC label to the cell surface remained negligible (FIG. 11). The cells were brought to 31° C. for 15 min, and then cooled on wet ice. ^3 H-FC transfer to the cell surface (in the presence and absence of inhibitor) was assayed with cholesterol oxidase as described above.

In assay [4] the test system is LDL FC uptake by fibroblast monolayers. Put plainly: Effects of metabolic inhibitors on uptake of 3H-cholesterol from LDL (Example 1).
Assay [5] deals with LDL-receptor deficient cells (GM 2000 line). Kind of assay: FC transfer from LDL to LDL receptor-deficient cells (GM 2000). It is filed as cell-based.
Assay [6] has as its system LDL FC uptake by fibroblast monolayers. As to conditions: for effect on LDL FC uptake: in words.
Assay [7] concerns fibroblasts. As to conditions: cited from earlier work.
Assay [8] deals with LDL FC uptake by fibroblast monolayers. Kind of assay: Transfer of LDL-derived 3H-FC into fibroblast monolayers with metabolic inhibitors (Example 2). In kind it is cell-based, human.

Take `C[C@@]1(CO)[C@H](O)CC[C@@]2(C)[C@H]1CC[C@H]1C[C@@H]3C[C@@]12CC[C@]3(O)CO` [aphidicolin]: in assay [1] (Example 4, following removal of inhibitor), the “cells synchronized to enter S-phase” value is on record as ~ 85%. In assay [1] (Example 5, 4 then 8 μg/ml aphidicolin), the “cells in synchrony at the beginning of S phase” value is given as 83.9±3.1%.
With `O=[N+]([O-])[O-].[K+]` [KNO3], the “initial rate of efflux of FC from prelabeled cells to plasma” value in assay [2] is reported as “increased several-fold”. Further, the “effect on transport of intracellular 3H-FC to the cell surface” value in assay [3] is given as “inhibited the return of FC to the cell surface, but less effectively than did nocodazole”. In addition, the “inhibition of the uptake of free cholesterol from LDLs” value in assay [4] (FIG. 8) was more than 80%. Moreover, the “time course of inhibition of LDL FC uptake” value in assay [4] (NEM: first 10-15 min, KNO3: 50 mM, data not shown) is given as “comparable time course”.
In the case of heparin, the “inhibition of LDL FC influx” value in assay [5] (GM 2000 cells, 0.1 mg/ml heparin, LDL 150 Fg FC ml^-1, 10 min) is listed as “Approximately 80%”; in assay [4] (normal fibroblasts, 0.1 mg/ml heparin, LDL 150 Fg FC ml^-1, 10 min) it was “Approximately 80%”.
As for `C=C[C@@]1(C)CC(=O)[C@]2(O)[C@@]3(C)[C@@H](O)CCC(C)(C)[C@@H]3[C@H](O)[C@H](OC(C)=O)[C@@]2(C)O1` [Forskolin], the “effect on LDL FC uptake” value in assay [6] is on record as “no effect”. Also, the “effect on transfer of newly-synthesized cholesterol to plasma membrane” value in assay [7] was “stimulated”.
Turning to `CC[C@@]1([C@@H]2O[C@@H]([C@H]3O[C@@](O)(CO)[C@H](C)C[C@@H]3C)C[C@@H]2C)CC[C@H]([C@]2(C)CC[C@]3(C[C@H](O)[C@@H](C)[C@@H]([C@@H](C)[C@@H](OC)[C@H](C)C(=O)O)O3)O2)O1` [Monensin], the “effect on selective uptake of FC from LDL in GM2000 cells” value in assay [5] (in words) is “Comparable results”. The “inhibition at higher concentration” value in assay [8] (100 mM (monensin: up to 100 mM)) is reported as “no increase in inhibition”. Besides, in assay [8] (brefeldin A, vinblastine, taxol, nocodazole, NEM 2 mM), the “effect on uptake of 3H-FC from LDL” value was “effective in reducing the selective uptake of FC from LDL”.
As for `CC(C)Cn1c(=O)n(C)c(=O)c2[nH]cnc21` [IBMX, isobutyl methylxanthine], the activity in assay [6] (fibroblast monolayers, 60 min) came to 111%. Besides, the “effect on LDL FC uptake” value in assay [6] is on record as “no effect”. Further, the “effect on transfer of newly-synthesized cholesterol to plasma membrane” value in assay [7] is “stimulated”.

The values are drawn from patent US6261760A, “Regulation of the cell cycle by sterols” (priority 1999, dated 2001).
